Like-named read-outs stand apart in the source and are kept apart here.
Tests used:
[1] = test system: primary neuronal cultures from embryonic rat brains; experiment: Rat oscillation assay (FLIPR, neuronal calcium oscillations); assay type: cell-based; details: Rattus norvegicus
Protocol: This assay is a functional phenotypic assay designed to mimic epileptic seizures using primary neuronal cultures from embryonic rat brains, which form a functional neuronal network that generate synchronized intracellular calcium concentration oscillations when cultured at high density in 384-well plate. The epileptic phenotype is induced by incubating the neurons in magnesium-free assay buffer, that results in increased probability of NMDA receptor activation, leading to an increased frequency and amplitude of intracellular calcium oscillations. Once neurons are incubated with the calcium indicator dye Fluo-8 AM (Tebu-bio), neuronal calcium oscillations can be monitored in real time using FLIPR® Tetra (fluorometric plate reader, Molecular Devices). With these recordings, the effect of anti-epileptic drugs can be quantified. The anti-epileptic effect of compounds, which activate directly or indirectly the Kv7 channels can be modulated by the Kv7 channel blocker XE-991. The assay was performed as described previously (Pacico N, Mingorance-Le Meur A. New In Vitro Phenotypic Assay for Epilepsy: Fluorescent Measurement of Synchronized Neuronal Calcium Oscillations. PLoS ONE 9(1) 2014) with modifications described hereafter.
Animal care followed standard procedures in accordance with swiss institutional guidelines. Dissociated neuronal cultures were obtained from cerebral cortices of embryonic Wistar rats at embryonic stage E18 (Charles River). The uterine horns were removed by caesarian surgery from deeply anesthetized rats (Isofurane) and sacrificed by decapitation. The embryos were decapitated by closing forceps. The brains were isolated and dissected one by one in ice-cold PBS (Life Technologies) under optical control using a binocular. Meninges, olfactory bulbs, and basal ganglia were removed. Cortical hemispheres (still including the hippocampus) were cut in small pieces with tweezers and placed on ice in prechilled Hibernate-E medium (Life technology). The hemispheres were then incubated in 10 mL of Hibernate-E containing 15 U/mL papain (Worthington) for 25 min at 30° C. with gentle mixing every 10 min. Genomic DNA was then digested by prolonging the incubation during 10 min at 37° C. in presence of 4 U/mL rDNase I (Ambion). The obtained suspension was then centrifuged at 800 g for 5 min and the cell pellet was resuspended in 2 mL Hibernate-E and gently dissociated by pipetting up and down 10 times with a plastic Pasteur pipette resulting in a homogenous cell suspension. This suspension was immediately filtered through a 70 µm cell strainer (MACS® SmartStrainer, Miltenyi), collected in 10 mL Hibernate-E and centrifuged at 800 g for 5 min. The cell pellet was resuspended in Neurobasal medium, supplemented with 2% B-27, 0.5 mM Glutamax-I, 100 U/mL penicillin, 100 µg/mL streptomycin (Life Technologies) and diluted at the final concentration of 300′000 cells/mL. One day before plating the cells, 384-well plates were coated with 25 µL/well of 0.1 % poly-L-lysine solution (Sigma), incubated overnight at 37° C., washed two times with sterile distilled water and allowed to dry at room temperature for >2 h. The neurons were seeded at a density of 15′000 cells/well in 50 µL/well in a 384-well black, clear-bottomed plates (Corning) and subsequently maintained in an incubator at 37° C., 5% CO2 and 95% humidity for 8 to 10 days. After 3 and 7 days, 40% of media was renewed under sterile conditions.
Neurons seeded in the assay plates were washed with Hank’s balanced salt solution (HBSS) devoid of Ca^2+ and Mg^2+, supplemented with 20 mM HEPES (Life Technologies) and 2 mM CaCl2 (Sigma), pH 7.4 (hereafter called Assay buffer) using a Biotek EL406 plate washer. Neurons were loaded with 1 µM Fluo-8 AM in Assay buffer for 15 min at 37° C., 5% CO2. […]

[2] = test system: audiogenic generalized convulsive seizures in DBA/2J mice; experiment: Audiogenic seizure-sensitive mouse model of generalized convulsive seizures; assay type: in vivo; details: 30 mg/kg po, challenge 1h
Protocol: Compounds were formulated in a 10% polyethylene glycol 400 (PEG 400) / 90% aqueous solution of 0.5 % methylcellulose (MC 0.5%). Firstly drugs are dissolved in PEG 400 and then suspended in MC 0.5 % for oral gavage at Xmg/5 mL/kg (X see table).
• 1. Procedure: Following two days of acclimatisation, auditory seizures are induced in male juvenile DBA/2J mice (22-24 days old; Janvier Labs, France). Each mouse is placed individually in the exposure chamber, an hemispheric acrylic glass dome (diameter: 50 cm) within a sound-attenuated box. The soundattenuated box is equipped with two house lights and a camera system (Fire-I from Unibrain) in order to observe and record the behavioral seizure response. After 60 seconds of habituation, the stimulus, a mixed frequency tone of 15-20 kHz at 110 dB (SASLab Lite, Avisoft Bioacoustics), is played from a speaker that is placed on the top center of the dome. […] Seizures are classified as following: stage 0, normal behavior; stage 1, wild running; stage 2, generalized clonus; stage 3, tonic extension of the hind limbs. • 2. Compounds testing: Acute compound effects on audiogenic generalized convulsive seizures are evaluated in independent groups of 8-10 mice randomly assigned. Following oral administration of compound or vehicle, the maximum seizure stage during sound exposure is assessed. Compounds are given 1 hour before exposure to the stimulus. Each mouse is exposed to the auditory stimulus only once and euthanized afterwards by CO2 inhalation.

[3] = 20 min, 20 min after compound addition, AUC of fluorescence, read-out: FLIPR: IC50 [nM] 20 min
[4] = Cortical neurone, acute phase, ratio of AUC fluorescence before and after compound addition, rat cortical neurons, Mg-free buffer, read-out: FLIPR: IC50 [nM] acute

## O=C(NCc1cccc(OCC(F)(F)F)c1)NC12CC(F)(C1)C2 [Example 17, 1-(3-Fluoro-Bicyclo[1.1.1]Pent-1-yl)-3-[3-(2,2,2-Trifluoro-Ethoxy)-Benzyl]-Urea]
[1]; [3]
  IC50: 239 nM
[1]; [4]
  IC50: 202 nM

## O=C(NCc1cccc(OCC(F)(F)F)c1)NC1CC(C(F)F)C1 (centres unmarked) [Example 18, 1-(3-Difluoromethyl-cyclobutyl)-3-[3-(2,2,2-trifluoro-ethoxy)-benzyl]-urea]
[1]; [3]
  IC50: 1080 nM
[1]; [4]
  IC50: 377 nM

## O=C(NCc1cccc(OCC(F)(F)F)c1)NC12CC(C(F)(F)F)(C1)C2 [Example 19, 1-[3-(2,2,2-Trifluoro-ethoxy)-benzyl]-3-(3-trifluoromethyl-bicyclo[1.1.1]pent-1-yl)-urea]
[1]; [3]
  IC50: 111 nM
[1]; [4]
  IC50: 50 nM

## O=C(NCc1cccc(OC(F)F)c1)NC12CC(F)(C1)C2 [Example 20, 1-(3-Difluoromethoxy-Benzyl)-3-(3-Fluoro-Bicyclo[1.1.1]Pent-1-yl)-Urea]
[1]; [3]
  IC50: 467 nM
[1]; [4]
  IC50: 566 nM

## O=C(NCc1cccc(OC(F)F)c1)NC1CC(C(F)F)C1 (centres unmarked) [Example 21, 1-(3-Difluoromethoxy-benzyl)-3-(3-difluoromethyl-cyclobutyl)-urea]
[1]; [3]
  IC50: 942 nM
[1]; [4]
  IC50: 373 nM

## O=C(NCc1cccc(OC(F)F)c1)NC12CC(C(F)(F)F)(C1)C2 [Example 22, 1-(3-Difluoromethoxy-benzyl)-3-(3-trifluoromethyl-bicyclo[1.1.1]pent-1-yl)-urea]
[1]; [3]
  IC50: 311 nM
[1]; [4]
  IC50: 134 nM

## O=C(NCc1cccc(OC(F)(F)F)c1)NC12CC(C(F)(F)F)(C1)C2 [Example 23, 1-(3-Trifluoromethoxy-Benzyl)-3-(3-Trifluoromethyl-Bicyclo[1.1.1]Pent-1-yl)-Urea]
[1]; [3]
  IC50: 53 nM
[1]; [4]
  IC50: 75 nM
[2]
  Seizure stage [% vs. vehicle]: -85 % vs. vehicle

## O=C(NCc1cccc(OC(F)(F)F)c1)NC1CC(C(F)F)C1 (centres unmarked) [Example 25, 1-(3-Difluoromethyl-cyclobutyl)-3-(3-trifluoromethoxy-benzyl)-urea]
[1]; [3]
  IC50: 610 nM
[1]; [4]
  IC50: 235 nM

## O=C(NCc1cccc(OC(F)(F)F)c1)NC12CC(C1)C2 [Example 26, 1-Bicyclo[1.1.1]pent-1-yl-3-(3-trifluoromethoxy-benzyl)-urea]
[1]; [3]
  IC50: 315 nM
[1]; [4]
  IC50: 295 nM

## O=C(NCc1cccc(C(F)F)c1)NC1CC(C(F)F)C1 (centres unmarked) [Example 27, 1-(3-Difluoromethyl-Benzyl)-3-(3-Difluoromethyl-Cyclobutyl)-Urea]
[1]; [3]
  IC50: 1730 nM
[1]; [4]
  IC50: 1340 nM

## O=C(NCc1cccc(C(F)F)c1)NC12CC(C(F)(F)F)(C1)C2 [Example 28, 1-(3-Difluoromethyl-Benzyl)-3-(3-Trifluoromethyl-Bicyclo[1.1.1]Pent-1-yl)-urea]
[1]; [3]
  IC50: 203 nM
[1]; [4]
  IC50: 117 nM

## O=C(NCc1ccnc(OC(F)(F)F)c1)NC1CC(C(F)F)C1 (centres unmarked) [Example 29, 1-(3-Difluoromethyl-Cyclobutyl)-3-(2-Trifluoromethoxy-Pyridin-4-Ylmethyl)-Urea]
[1]; [3]
  IC50: 2150 nM
[1]; [4]
  IC50: 367 nM

## O=C(NCc1ccnc(OC(F)(F)F)c1)NC12CC(C(F)(F)F)(C1)C2 [Example 30, 1-(2-Trifluoromethoxy-Pyridin-4-Ylmethyl)-3-(3-Trifluoromethyl-Bicyclo[1.1.1]Pent-1-yl)-Urea]
[1]; [3]
  IC50: 1480 nM
[1]; [4]
  IC50: 804 nM

## O=C(NCc1cccc(C(F)(F)F)c1)NC12CC(C1)C2 [Example 35, 1-Bicyclo[1.1.1]Pent-1-yl-3-(3-Trifluoromethyl-Benzyl)-Urea]
[1]; [3]
  IC50: 717 nM
[1]; [4]
  IC50: 231 nM

## O=C(NCc1cccc(C(F)(F)F)c1)NC12CC(F)(C1)C2 [Example 36, 1-(3-Fluoro-bicyclo[1.1.1]pent-1-yl)-3-(3-trifluoromethyl-benzyl)-urea]
[1]; [3]
  IC50: 344 nM
[1]; [4]
  IC50: 245 nM

## O=C(NCc1cccc(C(F)(F)F)c1)NC1CC(C(F)F)C1 (centres unmarked) [Example 38, 1-(3-Difluoromethyl-cyclobutyl)-3-(3-trifluoromethyl-benzyl)-urea]
[1]; [3]
  IC50: 390 nM
[1]; [4]
  IC50: 135 nM

## CC12CC(NC(=O)NCc3cccc(C(F)(F)F)c3)(C1)C2 [Example 39, 1-(3-Methyl-bicyclo[1.1.1]pent-1-yl)-3-(3-trifluoromethyl-benzyl)-urea]
[1]; [3]
  IC50: 68 nM
[1]; [4]
  IC50: 41 nM

## O=C(NCc1cccc(C(F)(F)F)c1)NC12CC(CF)(C1)C2 [Example 40, 1-(3-Fluoromethyl-bicyclo[1.1.1]pent-1-yl)-3-(3-trifluoromethyl-benzyl)-urea]
[1]; [3]
  IC50: 248 nM
[1]; [4]
  IC50: 149 nM

## O=C(NCc1cccc(C(F)(F)F)c1)NC1CC(C(F)(F)F)C1 (centres unmarked) [Example 41, 1-(3-Trifluoromethyl-benzyl)-3-(3-trifluoromethyl-cyclobutyl)-urea]
[1]; [3]
  IC50: 117 nM
[1]; [4]
  IC50: 73 nM

## O=C(NCc1cccc(C(F)(F)F)c1)NC1CC(O)(C(F)(F)F)C1 (centres unmarked) [Example 42, 1-(3-Hydroxy-3-trifluoromethyl-cyclobutyl)-3-(3-trifluoromethyl-benzyl)-urea]
[1]; [3]
  IC50: 1920 nM
[1]; [4]
  IC50: 1170 nM

## O=C(NCc1ccnc(OCC(F)(F)F)c1)NC12CC(C1)C2 [Example 43, 1-Bicyclo[1.1.1]Pent-1-yl-3-[2-(2,2,2-Trifluoro-Ethoxy)-Pyridin-4-Ylmethyl]-Urea]
[1]; [3]
  IC50: 967 nM
[1]; [4]
  IC50: 578 nM

## O=C(NCc1ccnc(OCC(F)(F)F)c1)NC12CC(F)(C1)C2 [Example 44, 1-(3-Fluoro-bicyclo[1.1.1]pent-1-yl)-3-[2-(2,2,2-trifluoro-ethoxy)-pyridin-4-ylmethyl]-urea]
[1]; [3]
  IC50: 1350 nM
[1]; [4]
  IC50: 591 nM

## O=C(NCc1ccnc(OCC(F)(F)F)c1)NC12CC(C(F)(F)F)(C1)C2 [Example 45, 1-[2-(2,2,2-Trifluoro-ethoxy)-pyridin-4-ylmethyl]-3-(3-trifluoromethyl-bicyclo[1.1.1]pent-1-yl)-urea]
[1]; [3]
  IC50: 701 nM
[1]; [4]
  IC50: 131 nM

## O=C(NCc1ccnc(OCC(F)(F)F)c1)NC1CC(C(F)F)C1 (centres unmarked) [Example 46, 1-(3-Difluoromethyl-cyclobutyl)-3-[2-(2,2,2-trifluoro-ethoxy)-pyridin-4-ylmethyl]-urea]
[1]; [3]
  IC50: 257 nM
[1]; [4]
  IC50: 148 nM

## O=C(NCc1cccc(C(F)(F)F)c1)NC12CCC(C1)C2 [Example 48, 1-Bicyclo[2.1.1]Hex-1-yl-3-(3-Trifluoromethyl-Benzyl)-Urea]
[1]; [3]
  IC50: 484 nM
[1]; [4]
  IC50: 232 nM

## CC1(NC(=O)NCc2cccc(C(F)(F)F)c2)CC(F)(F)C1 [Example 49, 1-(3,3-Difluoro-1-Methyl-Cyclobutyl)-3-(3-Trifluoromethyl-Benzyl)-Urea]
[1]; [3]
  IC50: 628 nM
[1]; [4]
  IC50: 247 nM

From patent US20230303486A1, “CYCLOBUTYL-UREA DERIVATIVES” (Idorsia Pharmaceuticals Ltd, priority 2020, published 2023)
